These results are taken from EP3069725A1, “GLORIOSA SUPERBA L. EXTRACTS, COMPOSITIONS AND USE THEREOF” (priority 2015, dated 2016).

The subject of experiment [1] is cancer cells. Particulars: literature comparison with colchicine; cited from earlier work.
In experiment [2] the test system is cancer cells. The note with it: literature; cited from earlier work.
In experiment [3] the test system is PANC02 cells. In words: In vivo efficacy study, subcutaneous PANC02 tumour model. The arrangement: species or system C57BL/6 mice. Particulars: 60 mg/kg BW gemcitabine IP, 3 times/week. As for the experimental part:
Cultures of PANC02 cells were harvested using a 0.05% trypsin solution, washed twice in sterile PBS and resuspended in sterile PBS at a concentration of 30 x 10^6 cells per mL. The viable cells were counted by using the Muse® Cell Analyzer. The mice (n = 56) were inoculated with 100 µL of the cell suspension in the right hind limb. Each mouse was randomly assigned to one of 8 groups (n = 6-8 mice per group) receiving a different treatment (Table 2). Tumour growth of the subcutaneous model was evaluated with calliper measurements from the moment the tumours became palpable and this three times a week before treatment and daily during treatment. The tumour volume was calculated by means of formula V = 0.5 x ab^2, with a and b being the long and short axes of the tumour, respectively. Table 2 - Group treatment assignment
Treatment was administered during 10 days, starting 19 days after tumour inoculation when tumours had reached a volume of approximately 300-400 mm^3. The first day of treatment was assigned "day 1". […] For both extracts the total amount of colchicine and its derivatives (calculated as colchicine) was the same, but the amount of colchicine itself in the extracts was different. […] To evaluate the effect of the treatment, tumour volume was measured daily during treatment and the mice were sacrificed on day 11.
Results were expressed as mean values of parameters ± standard error (SE). […]

For the molecule `COc1cc2c(c(OC)c1O)-c1ccc(OC)c(=O)cc1[C@@H](NC(C)=O)CC2` [2-O-demethylcolchicine], the in vivo potency in experiment [1] is 13.8 µmol/kg.

Regarding `COc1cc2c(c(OC)c1OC)-c1ccc(OC)c(=O)cc1[C@@H](NC(C)=O)CC2` [COL, colchicine], the in vivo potency in experiment [1] is 0.4 µmol/kg.

In the case of `COc1c(O[C@@H]2O[C@H](CO)[C@@H](O)[C@H](O)[C@H]2O)cc2c(c1OC)-c1ccc(OC)c(=O)cc1[C@@H](NC(C)=O)CC2` [Colchicoside], the activity in vitro result in experiment [2] is given as “not active”.

For the molecule `Nc1ccn([C@@H]2O[C@H](CO)[C@@H](O)C2(F)F)c(=O)n1` [Gemcitabine, gemcitabine], the “% TGI (7 days)” value in experiment [3] (day 7) is recorded as 90%. Moreover, in experiment [3] (day 10), the “% TGI (10 days)” value is recorded as 99%.
